In article PMC6264262, “Synthesis and Antimalarial Activity of Novel Dihydro-Artemisinin Derivatives” (Molecules, 2011):
pIC50: −log10 of the molar value.

Target: T1, P. falciparum falcipain-2 (Plasmodium falciparum, UniProt Q8I6U4)
T1 construct: Recombinant falcipain-2 (30 nM) was incubated for 30 min at room temperature
T1 sequence (Q8I6U4 244-484): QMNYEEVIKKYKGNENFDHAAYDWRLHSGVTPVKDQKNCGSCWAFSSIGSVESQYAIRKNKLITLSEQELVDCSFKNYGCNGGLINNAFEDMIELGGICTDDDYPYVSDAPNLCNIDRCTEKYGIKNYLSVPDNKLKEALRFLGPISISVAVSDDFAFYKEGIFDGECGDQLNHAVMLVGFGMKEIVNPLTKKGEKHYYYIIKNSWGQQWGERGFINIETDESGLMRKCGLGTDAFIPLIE
Assay: in vitro falcipain-2 inhibition assay (fluorogenic substrate Z-Leu-Arg-AMC)
Type: biochemical
Settings: recombinant falcipain-2 30 nM, pH 5.5, substrate Z-Leu-Arg-AMC 25 μM; for Inhibition rate: at 10 μM concentration level; for pIC50: 30 min preincubation, determined if inhibition rate larger than 20% at 10 μM
Method: The in vitro P. falciparum falcipain-2 inhibition assay against was carried out according to a previously reported method by taking N-(L-3-trans-carboxyoxiran-2-carbonyl)-L-leucyl)-amido(4-guanido)butane (E-64) as a positive control and DMSO as a negative control. Falcipain-2 could hydrolyse the fluorogenic substrate benzyloxycarbonyl-Leu-Arg-7-amino-4-methylcoumarin (Z-Leu-Arg-AMC) to produce coumarin and its activity could be evaluated by monitoring the fluorescence of the coumarin.
Recombinant falcipain-2 (30 nM) was incubated for 30 min at room temperature in 100 mM NaOAc, pH 5.5, 10 mM dithiothreitol (DTT), with different concentrations of 10a-l and 12a-f. These solutions were prepared from stock in DMSO (maximum concentration of DMSO in the assay was 1%). After incubation, the substrate Z-Leu-Arg-AMC with the same buffer was added to a final concentration of 25 μM. The increase in fluorescence (excitation at 355 nm and emission at 460 nm) was monitored for 30 min at room temperature with an automated microplate spectrofluorimeter (Biotek, Synergy 2). IC50 values were determined from plots of percent activity over compound concentration using the GraphPad Prism software if inhibition rates were larger than 20% at 10 μM concentration level.

SMILES: CC1CCC2C(C)[C@@H](Oc3ccc(C=NNC(=O)Nc4ccc(F)cc4)cc3)OC3OC4(C)CCC1C32OO4 (stereo partly drawn) [Compound 10h, 4-[(10S)-Dihydroartemisinin-10-oxy]benzaldehyde N^4-(4-fluorophenyl)semicarbazone]
- Inhibition rate: 84.60%
- pIC50: 5.99

SMILES: CCOc1ccc(NC(=O)NN=Cc2ccc(O[C@H]3OC4OC5(C)CCC6C(C)CCC(C3C)C46OO5)cc2)cc1 (stereo partly drawn) [Compound 10i, 4-[(10S)-Dihydroartemisinin-10-oxy]benzaldehyde N^4-(4-ethoxyphenyl)semicarbazone]
- Inhibition rate: 72.70%
- pIC50: 6.15

SMILES: Cc1c(Cl)cccc1NC(=S)NN=Cc1ccc(O[C@H]2OC3OC4(C)CCC5C(C)CCC(C2C)C35OO4)cc1 (stereo partly drawn) [Compound 10f, 4-[(10S)-Dihydroartemisinin-10-oxy]benzaldehyde N^4-(3-chloro-2-methylphenyl)thiosemicarbazone]
- Inhibition rate: 75.62%
- pIC50: 6.01

SMILES: Cc1c(Cl)cccc1NC(=O)NN=Cc1ccc(O[C@H]2OC3OC4(C)CCC5C(C)CCC(C2C)C35OO4)cc1 (stereo partly drawn) [Compound 10l, 4-[(10S)-Dihydroartemisinin-10-oxy]benzaldehyde N^4-(3-chloro-2-methylphenyl)semicarbazone]
- Inhibition rate: 81.82%
- pIC50: 5.60

SMILES: CC1CCC2C(C)[C@@H](Oc3ccc(C=NNC(=O)Nc4ccccc4F)cc3)OC3OC4(C)CCC1C32OO4 (stereo partly drawn) [Compound 10g, 4-[(10S)-Dihydroartemisinin-10-oxy]benzaldehyde N^4-(2-fluorophenyl)semicarbazone]
- Inhibition rate: 76.74%
- pIC50: 5.65

SMILES: Cc1cc(C)cc(NC(=O)NN=Cc2ccc(O[C@H]3O[C@@H]4O[C@@]5(C)CC[C@H]6[C@H](C)CC[C@@H]([C@H]3C)[C@@]46OO5)cc2)c1 [Compound 10k, 4-[(10S)-Dihydroartemisinin-10-oxy]benzaldehyde N^4-(3,5-dimethylphenyl)semicarbazone]
- Inhibition rate: 87.88%
- pIC50: 5.99

SMILES: Cc1ccc(C)c(NC(=O)NN=Cc2ccc(C(=O)O[C@@H]3OC4OC5(C)CCC6C(C)CCC(C3C)C46OO5)cc2)c1 (stereo partly drawn) [Compound 12d, 4-[(10S)-Dihydroartemisinin-10-oxycarbonyl]benzaldehyde N^4-(2,5-dimethylphenyl)semicarbazone]
- Inhibition rate: 76.61%
- pIC50: 5.53

SMILES: CC1CCC2C(C)[C@@H](Oc3ccc(C=NNC(=S)Nc4ccc(F)cc4)cc3)OC3OC4(C)CCC1C32OO4 (stereo partly drawn) [Compound 10b, 4-[(10S)-Dihydroartemisinin-10-oxy]benzaldehyde N^4-(4-fluorophenyl)thiosemicarbazone]
- Inhibition rate: 59.76%
- pIC50: 5.66

SMILES: Cc1ccc(C)c(NC(=O)NN=Cc2ccc(O[C@H]3OC4OC5(C)CCC6C(C)CCC(C3C)C46OO5)cc2)c1 (stereo partly drawn) [Compound 10j, 4-[(10S)-Dihydroartemisinin-10-oxy]benzaldehyde N^4-(2,5-dimethylphenyl)semicarbazone]
- Inhibition rate: 59.01%
- pIC50: 5.64

SMILES: CC(C)C[C@H](NC(=O)[C@H]1O[C@@H]1C(=O)O)C(=O)NCCCCN=C(N)N (relative stereo) [Compound E-64, reference compound]
- Inhibition rate: 100.0%
- pIC50: 7.71

SMILES: Cc1c(Cl)cccc1NC(=O)NN=Cc1ccc(C(=O)O[C@@H]2OC3OC4(C)CCC5C(C)CCC(C2C)C35OO4)cc1 (stereo partly drawn) [Compound 12f, 4-[(10S)-Dihydroartemisinin-10-oxycarbonyl]benzaldehyde N^4-(3-chloro-2-methylphenyl)semicarbaz-one]
- Inhibition rate: 74.67%
- pIC50: 4.97

SMILES: CC1CCC2C(C)[C@H](OC(=O)c3ccc(C=NNC(=O)Nc4ccccc4F)cc3)OC3OC4(C)CCC1C32OO4 (stereo partly drawn) [Compound 12a, 4-[(10S)-Dihydroartemisinin-10-oxycarbonyl]benzaldehyde N^4-(2-fluorophenyl)semicarbazone]
- Inhibition rate: 79.32%
- pIC50: 6.33

SMILES: CCOc1ccc(NC(=S)NN=Cc2ccc(O[C@H]3OC4OC5(C)CCC6C(C)CCC(C3C)C46OO5)cc2)cc1 (stereo partly drawn) [Compound 10c, 4-[(10S)-Dihydroartemisinin-10-oxy]benzaldehyde N^4-(4-ethoxyphenyl)thiosemicarbazone]
- Inhibition rate: 87.42%
- pIC50: 6.28

SMILES: Cc1cc(C)cc(NC(=O)NN=Cc2ccc(C(=O)O[C@@H]3O[C@@H]4O[C@@]5(C)CC[C@H]6[C@H](C)CC[C@@H]([C@H]3C)[C@@]46OO5)cc2)c1 [Compound 12e, 4-[(10S)-Dihydroartemisinin-10-oxycarbonyl]benzaldehyde N^4-(3,5-dimethylphenyl)semicarbazone]
- Inhibition rate: 71.62%
- pIC50: 6.24

SMILES: CC1CCC2C(C)[C@@H](Oc3ccc(C=NNC(=S)Nc4ccccc4F)cc3)OC3OC4(C)CCC1C32OO4 (stereo partly drawn) [Compound 10a, 4-[(10S)-Dihydroartemisinin-10-oxy]benzaldehyde N^4-(2-fluorophenyl)thiosemicarbazone]
- Inhibition rate: 72.48%
- pIC50: 5.60

SMILES: CC1CCC2C(C)[C@H](OC(=O)c3ccc(C=NNC(=O)Nc4ccc(F)cc4)cc3)OC3OC4(C)CCC1C32OO4 (stereo partly drawn) [Compound 12b, 4-[(10S)-Dihydroartemisinin-10-oxycarbonyl]benzaldehyde N^4-(4-fluorophenyl)semicarbazone]
- Inhibition rate: 69.25%
- pIC50: 6.19

SMILES: CCOc1ccc(NC(=O)NN=Cc2ccc(C(=O)O[C@@H]3OC4OC5(C)CCC6C(C)CCC(C3C)C46OO5)cc2)cc1 (stereo partly drawn) [Compound 12c, 4-[(10S)-Dihydroartemisinin-10-oxycarbonyl]benzaldehyde N^4-(4-ethoxyphenyl)semicarbazone]
- Inhibition rate: 75.89%
- pIC50: 6.54

SMILES: Cc1cc(C)cc(NC(=S)NN=Cc2ccc(O[C@H]3O[C@@H]4O[C@@]5(C)CC[C@H]6[C@H](C)CC[C@@H]([C@H]3C)[C@@]46OO5)cc2)c1 [Compound 10e, 4-[(10S)-Dihydroartemisinin-10-oxy]benzaldehyde N^4-(3,5-dimethylphenyl)thiosemicarbazone]
- Inhibition rate: 74.06%
- pIC50: 5.87

SMILES: Cc1ccc(C)c(NC(=S)NN=Cc2ccc(O[C@H]3OC4OC5(C)CCC6C(C)CCC(C3C)C46OO5)cc2)c1 (stereo partly drawn) [Compound 10d, 4-[(10S)-Dihydroartemisinin-10-oxy]benzaldehyde N^4-(2,5-dimethylphenyl)thiosemicarbazone]
- Inhibition rate: 75.28%
- pIC50: 6.26
